pIC50: −log10 of the molar value.
Legend:
[1] = Microsome stability assay, mouse liver microsomes; type: in vitro ADME; details: 1 μM compound, 0.5 mg/mL microsomal protein; for microsomal CLint at 1 μM / half-life at 1 μM / microsomal CLint at 1 h, 1 µM / half-life at 1 h, 1 µM: mouse, mouse liver microsomes, pooled, NADPH, 37° C.; for microsomal CLint at 1 μM / microsomal CLint at 1 h, 1 µM: read-out: Microsome Stability Mouse liver microsomes Cl; for half-life at 1 μM / half-life at 1 h, 1 µM: read-out: Microsome Stability Mouse liver microsomes T½
Outline: (§1)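 Compound at 1 μM incubated at 37° C with pooled human or mouse liver microsomes (0.5 mg/mL protein) plus NADPH regenerating system, sampled at 0–60 min; a 60-min no-NADPH incubation also included. Single replicate; LC/MS/MS disappearance from analyte/internal standard peak area ratios, without standard curve.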

HSD17B1 = HSD17B1 (Homo sapiens (Human), UniProt P14061); assay: HSD17B1 enzymatic blocking assay; type: biochemical; details: 25 μM Estradiol, 500 μM NAD; read-out: Inhibition of HSD17B1 IC50
Outline: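 Activity followed as NADH formed on estradiol oxidation, read by NADH-Glo luminescence after 1 h detection in the dark at room temperature. Compounds preincubated with enzyme 30 min at room temperature; 0.5% DMSO and no-substrate controls. IC50 fitted from luminescence.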

HSD17B13 = HSD17B13 (Homo sapiens (Human), UniProt Q7Z5P4); assay: HSD17B13 enzymatic inhibition assay (150 nM or 50 nM HSD17B13); type: biochemical; details: 50 nM HSD17B13; read-out: Inhibition of 50 nM of HSD17B13 IC50
[2] = Microsome stability assay, human liver microsomes; type: in vitro ADME; details: 1 μM compound, 0.5 mg/mL microsomal protein; for microsomal CLint at 1 h, 1 µM / half-life at 1 h, 1 µM / microsomal CLint at 1 μM / half-life at 1 μM: human, human liver microsomes, pooled, NADPH, 37° C.; for microsomal CLint at 1 h, 1 µM / microsomal CLint at 1 μM: read-out: Microsome Stability Human liver microsomes Cl; for half-life at 1 h, 1 µM / half-life at 1 μM: read-out: Microsome Stability Human liver microsomes T½
Outline: as §1

HSD17B2 = HSD17B2 (Homo sapiens (Human), UniProt P37059); assay: HSD17B2 enzymatic blocking assay; type: biochemical; details: 1.8 μM Estradiol, 650 μM NAD; read-out: Inhibition of HSD17B2 IC50
Outline: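 Mammalian-expressed enzyme at 2 ng/μL in 50 mM Tris-HCl pH 7.5 with detergents/BSA, preincubated 15 min at 20° C. with compound (10-point titration). Reaction with 1.8 μM estradiol and 650 μM NAD ran 45 min at 20° C.; NADH measured by NADH-Glo luminescence and IC50 derived.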

HSD17B2, sequence (P37059 other isoform, or with tags, fused parts or gaps): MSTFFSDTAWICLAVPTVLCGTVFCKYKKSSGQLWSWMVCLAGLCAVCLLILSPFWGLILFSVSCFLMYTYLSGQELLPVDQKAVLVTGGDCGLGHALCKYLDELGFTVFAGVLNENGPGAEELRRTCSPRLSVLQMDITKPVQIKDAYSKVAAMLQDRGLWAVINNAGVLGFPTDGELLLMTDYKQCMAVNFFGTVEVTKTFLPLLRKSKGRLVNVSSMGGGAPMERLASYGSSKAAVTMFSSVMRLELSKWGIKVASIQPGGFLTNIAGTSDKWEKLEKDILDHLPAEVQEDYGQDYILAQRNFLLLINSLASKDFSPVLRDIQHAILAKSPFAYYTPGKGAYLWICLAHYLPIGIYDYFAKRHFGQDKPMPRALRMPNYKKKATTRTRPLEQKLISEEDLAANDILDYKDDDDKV
HSD17B13, sequence (Q7Z5P4 other isoform, or with tags, fused parts or gaps): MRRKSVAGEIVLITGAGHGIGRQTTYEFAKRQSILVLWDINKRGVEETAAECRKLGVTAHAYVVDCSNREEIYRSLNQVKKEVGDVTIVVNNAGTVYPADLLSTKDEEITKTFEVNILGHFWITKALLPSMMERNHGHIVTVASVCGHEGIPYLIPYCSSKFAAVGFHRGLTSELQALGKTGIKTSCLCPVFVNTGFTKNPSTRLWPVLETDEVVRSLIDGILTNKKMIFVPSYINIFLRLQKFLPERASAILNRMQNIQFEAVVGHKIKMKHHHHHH
HSD17B1, sequence (P14061 other isoform, or with tags, fused parts or gaps): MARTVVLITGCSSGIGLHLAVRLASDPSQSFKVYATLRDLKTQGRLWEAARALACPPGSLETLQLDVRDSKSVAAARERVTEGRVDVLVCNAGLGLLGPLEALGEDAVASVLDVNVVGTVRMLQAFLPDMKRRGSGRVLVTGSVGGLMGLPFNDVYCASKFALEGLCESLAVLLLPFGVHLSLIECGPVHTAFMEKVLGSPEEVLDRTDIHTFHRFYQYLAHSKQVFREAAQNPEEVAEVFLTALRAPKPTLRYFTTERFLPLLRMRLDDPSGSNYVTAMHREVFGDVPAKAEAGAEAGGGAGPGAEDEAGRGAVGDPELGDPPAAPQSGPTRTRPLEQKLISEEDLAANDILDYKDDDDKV

| Structure (SMILES) | Microsome Stability Mouse liver microsomes % Remaining @60 min [1] [%] | microsomal CLint at 1 μM [1] [µL/min/mg] | half-life at 1 μM [1] [min] | pIC50 (HSD17B1) | pIC50 (HSD17B13) | Microsome Stability Human liver microsomes % Remaining @60 min [2] [%] | microsomal CLint at 1 h, 1 µM [2] [µL/min/mg] | half-life at 1 h, 1 µM [2] [min] | pIC50 (HSD17B2) | microsomal CLint at 1 h, 1 µM [1] [µL/min/mg] | half-life at 1 h, 1 µM [1] [min] | microsomal CLint at 1 μM [2] [µL/min/mg] | half-life at 1 μM [2] [min] |
| --- | --- | --- | --- | --- | --- | --- | --- | --- | --- | --- | --- | --- | --- |
| Cc1ccc2c(c1)[C@H](O)CC[C@H]2NC(=O)c1ccc(C(F)(F)F)[nH]c1=O [Compound 311, N-((1R,4R)-4-hydroxy-6-methyl-1,2,3,4-tetrahydronaphthalen-1-yl)-2-oxo-6-(trifluoromethyl)-1,2-dihydropyridine-3-carboxamide] | 105 | < 9.6 | > 145 | < 4.52 | 6.72 | 67.80 | 10.5 | 132 | < 4.00 | – | – | – | – |
| COc1ccc2c(c1)Oc1cnccc1C2NC(=O)c1ccc(C(F)(F)F)[nH]c1=O (stereo not drawn) [Compound 327, N-(8-methoxy-5H-chromeno[2,3-c]pyridin-5-yl)-2-oxo-6-(trifluoromethyl)-1,2-dihydropyridine-3-carboxamide] | 46 | – | – | 4.67 | 6.42 | 62 | 15.8 | 87.7 | < 4.00 | 24.6 | 56.3 | – | – |
| COC1Cc2cc(C)ccc2C1NC(=O)c1ccc(C(F)(F)F)[nH]c1=O (stereo not drawn) [Compound 351, N-(2-methoxy-5-methyl-2,3-dihydro-1H-inden-1-yl)-2-oxo-6-(trifluoromethyl)-1,2-dihydropyridine-3-carboxamide] | 83.70 | < 9.6 | > 145 | < 4.52 | 6.29 | 0.73 | 157 | 8.84 | 4.18 | – | – | – | – |
| COc1ccc2c(c1)CC(OC)C2NC(=O)c1ccc(C(F)(F)F)[nH]c1=O (stereo not drawn) [Compound 352, N-(2,5-dimethoxy-2,3-dihydro-1H-inden-1-yl)-2-oxo-6-(trifluoromethyl)-1,2-dihydropyridine-3-carboxamide] | 88.70 | < 9.6 | > 145 | < 4.52 | 6.15 | 5.86 | 93.5 | 14.8 | < 4.00 | – | – | – | – |
| CC[C@@H]1Oc2cc(C)ccc2[C@H]1NC(=O)c1ccc(C(F)(F)F)[nH]c1=O [Compound 360, N-((2S,3R)-2-ethyl-6-methyl-2,3-dihydrobenzofuran-3-yl)-2-oxo-6-(trifluoromethyl)-1,2-dihydropyridine-3-carboxamide] | 36.20 | – | – | < 4.52 | 6.23 | 1 | 318 | 4.36 | 4.64 | 32.8 | 42.2 | – | – |
| CCC[C@H]1C[C@@H](NC(=O)c2ccc(C(F)(F)F)[nH]c2=O)c2cc(C)ccc2N1 [Compound 362, N-((2S,4R)-6-methyl-2-propyl-1,2,3,4-tetrahydroquinolin-4-yl)-2-oxo-6-(trifluoromethyl)-1,2-dihydropyridine-3-carboxamide] | 70 | 12.1 | 114 | < 4.52 | 7.10 | 58.50 | – | – | 4.56 | – | – | 15.3 | 90.7 |
| CCCC1Cc2cc(C)ccc2C(NC(=O)c2ccc(C(F)(F)F)[nH]c2=O)C1 (stereo not drawn) [Compound 387, N-(6-methyl-3-propyl-1,2,3,4-tetrahydronaphthalen-1-yl)-2-oxo-6-(trifluoromethyl)-1,2-dihydropyridine-3-carboxamide] | 21.60 | – | – | < 4.52 | 7.30 | 2.70 | 112 | 12.3 | 4.56 | 52 | 26.6 | – | – |
| CCC1Cc2cc(C)ccc2C(NC(=O)c2ccc(C(F)(F)F)[nH]c2=O)C1 (stereo not drawn) [Compound 388, N-(3-ethyl-6-methyl-1,2,3,4-tetrahydronaphthalen-1-yl)-2-oxo-6-(trifluoromethyl)-1,2-dihydropyridine-3-carboxamide] | 24.60 | – | – | < 4.52 | 7.30 | 10 | 150 | 9.26 | 4.59 | 47.4 | 29.2 | – | – |
| Cc1ccc2c(c1)OCCC2NC(=O)c1ccc(C(F)(F)F)[nH]c1=O (stereo not drawn) [Compound 441, N-(7-methylchroman-4-yl)-2-oxo-6-(trifluoromethyl)-1,2-dihydropyridine-3-carboxamide] | 74 | – | – | < 4.52 | 5.66 | 45 | – | – | 4.95 | 10.2 | 135 | 26.4 | 52.5 |
| Cc1cccc(C(NC(=O)c2ccc(C(F)(F)F)[nH]c2=O)c2ccccc2)c1 (stereo not drawn) [Compound 490, 2-oxo-N-(phenyl(m-tolyl)methyl)-6-(trifluoromethyl)-1,2-dihydropyridine-3-carboxamide] | 1.60 | – | – | < 4.52 | 6.23 | 1 | 203 | 6.83 | 4.79 | 140 | 9.87 | – | – |
| Nc1cccc2c1CCCC2NC(=O)c1ccc(C(F)(F)F)[nH]c1=O (stereo not drawn) [Compound 533, N-(5-amino-1,2,3,4-tetrahydronaphthalen-1-yl)-2-oxo-6-(trifluoromethyl)-1,2-dihydropyridine-3-carboxamide] | 90.20 | < 9.6 | > 145 | < 4.52 | 6.17 | 88.90 | – | – | 4.14 | – | – | < 9.6 | > 145 |

Source: patent publication US11957687B2 (REGENERON PHARMACEUTICALS, INC., priority 2019, dated 2024)
